Laboratory results reported in PubChem BioAssay (NCI).
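Exposure lasted 48 hours, with cells grown in 96-well plates and compounds tested at five concentrations. GI50 = concentration required for 50% inhibition of growth. The concentration for full growth arrest is given as TGI.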

Columns and labels:
Assay in all cases: NCI-60 cell line screen, 48 h
EKVX NSCLC = system: EKVX NSCLC
MALME-3M melanoma = system: MALME-3M melanoma
RPMI-8226 leukemia = system: RPMI-8226 leukemia
LOX IMVI melanoma = system: LOX IMVI melanoma
SK-MEL-28 melanoma = system: SK-MEL-28 melanoma
NCI-H226 lung = system: NCI-H226 lung
SF-539 CNS = system: SF-539 CNS
NCI-H23 lung = system: NCI-H23 lung
COLO 205 colon = system: COLO 205 colon
HOP-92 NSCLC = system: HOP-92 NSCLC
IGROV1 ovarian = system: IGROV1 ovarian
U251 CNS = system: U251 CNS
MOLT-4 leukemia = system: MOLT-4 leukemia
TK-10 renal = system: TK-10 renal
CAKI-1 renal = system: CAKI-1 renal
HCT-116 colon = system: HCT-116 colon
SNB-75 CNS = system: SNB-75 CNS
HS 578T breast = system: HS 578T breast
T-47D breast = system: T-47D breast
HOP-62 NSCLC = system: HOP-62 NSCLC
MDA-MB-435 = system: MDA-MB-435
A498 renal = system: A498 renal
SK-MEL-5 melanoma = system: SK-MEL-5 melanoma
CCRF-CEM leukemia = system: CCRF-CEM leukemia
MDA-MB-231 breast = system: MDA-MB-231 breast
UO-31 renal = system: UO-31 renal
SNB-19 CNS = system: SNB-19 CNS
OVCAR-5 ovarian = system: OVCAR-5 ovarian
SF-295 CNS = system: SF-295 CNS
SN12C renal = system: SN12C renal
SK-MEL-2 melanoma = system: SK-MEL-2 melanoma
NCI-H522 lung = system: NCI-H522 lung
A549 NSCLC = system: A549 NSCLC
HL-60(TB) leukemia = system: HL-60(TB) leukemia
MCF7 breast = system: MCF7 breast
HCC-2998 colon = system: HCC-2998 colon
DU-145 prostate = system: DU-145 prostate
OVCAR-3 ovarian = system: OVCAR-3 ovarian
SR leukemia = system: SR leukemia
K-562 leukemia = system: K-562 leukemia
NCI-H460 lung = system: NCI-H460 lung
UACC-62 melanoma = system: UACC-62 melanoma
OVCAR-4 ovarian = system: OVCAR-4 ovarian
SW-620 colon = system: SW-620 colon
SK-OV-3 ovarian = system: SK-OV-3 ovarian
786-0 renal = system: 786-0 renal
SF-268 CNS = system: SF-268 CNS
HCT-15 colon = system: HCT-15 colon
ACHN renal = system: ACHN renal
KM12 colon = system: KM12 colon
M14 melanoma = system: M14 melanoma
HT29 colon = system: HT29 colon
PC-3 prostate = system: PC-3 prostate
NCI/ADR-RES ovarian = system: NCI/ADR-RES ovarian

Question: What does the source list for COc1ccccc1N1CCN(CC(O)Cn2c(=O)c3c(OC)nc(C)cc3c(=O)n2-c2ccccc2)CC1 (stereo not drawn)?
Answer: GI50 (EKVX NSCLC): 66.1 µM; TGI (EKVX NSCLC): > 100 µM; GI50 (MALME-3M melanoma): > 100 µM; TGI (MALME-3M melanoma): > 100 µM; GI50 (RPMI-8226 leukemia): 39.6 µM; TGI (RPMI-8226 leukemia): > 100 µM; GI50 (LOX IMVI melanoma): 30.5 µM; TGI (LOX IMVI melanoma): > 100 µM; GI50 (SK-MEL-28 melanoma): > 100 µM; TGI (SK-MEL-28 melanoma): > 100 µM; GI50 (NCI-H226 lung): > 100 µM; TGI (NCI-H226 lung): > 100 µM; GI50 (SF-539 CNS): 32.6 µM; TGI (SF-539 CNS): > 100 µM; GI50 (NCI-H23 lung): 59.1 µM; TGI (NCI-H23 lung): > 100 µM; GI50 (COLO 205 colon): > 100 µM; TGI (COLO 205 colon): > 100 µM; GI50 (HOP-92 NSCLC): 15.7 µM; TGI (HOP-92 NSCLC): 36 µM; GI50 (IGROV1 ovarian): 41 µM; TGI (IGROV1 ovarian): > 100 µM; GI50 (U251 CNS): 31.6 µM; TGI (U251 CNS): > 100 µM; GI50 (MOLT-4 leukemia): > 100 µM; TGI (MOLT-4 leukemia): > 100 µM; GI50 (TK-10 renal): 19.4 µM; TGI (TK-10 renal): 81.7 µM; GI50 (CAKI-1 renal): 32.7 µM; TGI (CAKI-1 renal): > 100 µM; GI50 (HCT-116 colon): 67.3 µM; TGI (HCT-116 colon): > 100 µM; GI50 (SNB-75 CNS): 14.8 µM; TGI (SNB-75 CNS): 37.6 µM; GI50 (HS 578T breast): 25.7 µM; TGI (HS 578T breast): > 100 µM; GI50 (T-47D breast): > 100 µM; TGI (T-47D breast): > 100 µM; GI50 (HOP-62 NSCLC): 43.7 µM; TGI (HOP-62 NSCLC): > 100 µM; GI50 (MDA-MB-435): > 100 µM; TGI (MDA-MB-435): > 100 µM; GI50 (A498 renal): 23.8 µM; TGI (A498 renal): 98.2 µM; GI50 (SK-MEL-5 melanoma): 46.2 µM; TGI (SK-MEL-5 melanoma): > 100 µM; GI50 (CCRF-CEM leukemia): > 100 µM; TGI (CCRF-CEM leukemia): > 100 µM; GI50 (MDA-MB-231 breast): 24.3 µM; TGI (MDA-MB-231 breast): > 100 µM; GI50 (UO-31 renal): > 100 µM; TGI (UO-31 renal): > 100 µM; GI50 (SNB-19 CNS): 25.5 µM; TGI (SNB-19 CNS): > 100 µM; GI50 (OVCAR-5 ovarian): > 100 µM; TGI (OVCAR-5 ovarian): > 100 µM; GI50 (SF-295 CNS): 25.8 µM; TGI (SF-295 CNS): > 100 µM; GI50 (SN12C renal): > 100 µM; TGI (SN12C renal): > 100 µM; GI50 (SK-MEL-2 melanoma): 43.9 µM; TGI (SK-MEL-2 melanoma): > 100 µM; GI50 (NCI-H522 lung): > 100 µM; TGI (NCI-H522 lung): > 100 µM; GI50 (A549 NSCLC): > 100 µM; TGI (A549 NSCLC): > 100 µM; GI50 (HL-60(TB) leukemia): > 100 µM; TGI (HL-60(TB) leukemia): > 100 µM; GI50 (MCF7 breast): > 100 µM; TGI (MCF7 breast): > 100 µM; GI50 (HCC-2998 colon): > 100 µM; TGI (HCC-2998 colon): > 100 µM; GI50 (DU-145 prostate): > 100 µM; TGI (DU-145 prostate): > 100 µM; GI50 (OVCAR-3 ovarian): > 100 µM; TGI (OVCAR-3 ovarian): > 100 µM; GI50 (SR leukemia): > 100 µM; TGI (SR leukemia): > 100 µM; GI50 (K-562 leukemia): > 100 µM; TGI (K-562 leukemia): > 100 µM; GI50 (NCI-H460 lung): > 100 µM; TGI (NCI-H460 lung): > 100 µM; GI50 (UACC-62 melanoma): 64.9 µM; TGI (UACC-62 melanoma): > 100 µM; GI50 (OVCAR-4 ovarian): > 100 µM; TGI (OVCAR-4 ovarian): > 100 µM; GI50 (SW-620 colon): > 100 µM; TGI (SW-620 colon): > 100 µM; GI50 (SK-OV-3 ovarian): 23.5 µM; TGI (SK-OV-3 ovarian): > 100 µM; GI50 (786-0 renal): 24.3 µM; TGI (786-0 renal): 76.9 µM; GI50 (SF-268 CNS): 62.1 µM; TGI (SF-268 CNS): > 100 µM; GI50 (HCT-15 colon): > 100 µM; TGI (HCT-15 colon): > 100 µM; GI50 (ACHN renal): 37.9 µM; TGI (ACHN renal): > 100 µM; GI50 (KM12 colon): > 100 µM; TGI (KM12 colon): > 100 µM; GI50 (M14 melanoma): > 100 µM; TGI (M14 melanoma): > 100 µM; GI50 (HT29 colon): > 100 µM; TGI (HT29 colon): > 100 µM; GI50 (PC-3 prostate): 43 µM; TGI (PC-3 prostate): > 100 µM; GI50 (NCI/ADR-RES ovarian): 87.9 µM; TGI (NCI/ADR-RES ovarian): > 100 µM
